Assay results taken from article PMC12597549 (Drug Metabolism and Disposition, 2025).

Assays:
CYP1A2 [1] = test system: CYP1A2; set-up: method as in Bansal et al., 2020; settings: ref Bansal et al., 2020, read-out: KI,u (binding-corrected half-maximal inactivation concentration); cited from earlier work
[2] = cannabidiol PBPK input; ref ChEMBL database (https://www.ebi.ac.uk/); cited from earlier work
CYP2C19 [3] = test system: CYP2C19; set-up: method as in Bansal et al., 2023; settings: enzyme kinetic (HLM); ref Bansal et al., 2023; cited from earlier work
CYP1A2 [4] = test system: CYP1A2; set-up: method as in Bansal et al., 2023; settings: enzyme kinetic (HLM); ref Bansal et al., 2023; cited from earlier work
CYP2C8 = test system: CYP2C8; set-up: method as in Bansal et al., 2023; settings: enzyme kinetic (HLM); ref Bansal et al., 2023; cited from earlier work
CYP2B6 = test system: CYP2B6; set-up: method as in Bansal et al., 2023; settings: enzyme kinetic (HLM); ref Bansal et al., 2023; cited from earlier work
UGT1A9 = test system: UGT1A9; set-up: method as in Bansal et al., 2023; settings: enzyme kinetic (HLM); ref Bansal et al., 2023; cited from earlier work
UGT2B7 [5] = test system: UGT2B7; set-up: method as in Bansal et al., 2023; settings: enzyme kinetic (HLM); ref Bansal et al., 2023; cited from earlier work
CYP3A = test system: CYP3A; set-up: method as in Bansal et al., 2020; settings: ref Bansal et al., 2020, read-out: KI,u (binding-corrected half-maximal inactivation concentration); cited from earlier work
CYP2C9 = test system: CYP2C9; set-up: method as in Bansal et al., 2023; settings: enzyme kinetic (HLM); ref Bansal et al., 2023; cited from earlier work
[6] = set value for static model; ref Cox et al., 2019; cited from earlier work
[7] = test system: UGT2B7-mediated hydromorphone metabolism; assay: Static mechanistic IVIVE modeling of cannabinoid-hydromorphone drug interaction (AUCR); set-up: species or system human; settings: after inhalation and oral consumption of THC and CBD
CYP2D6 = test system: CYP2D6; set-up: method as in Bansal et al., 2023; settings: enzyme kinetic (HLM); ref Bansal et al., 2023; cited from earlier work
[8] = target: T1, UGT2B7 in pooled human liver microsomes (HLM) (Homo sapiens, UniProt P16662); assay: Inhibition of UGT2B7-mediated hydromorphone glucuronidation by cannabinoids in pooled HLM (screening, IC50, Ki, inhibition type); assay type: biochemical; settings: type of reversible inhibition of UGT2B7-mediated hydromorphone metabolism in HLM; Lineweaver-Burk replots
T1 sequence (P16662 24-529): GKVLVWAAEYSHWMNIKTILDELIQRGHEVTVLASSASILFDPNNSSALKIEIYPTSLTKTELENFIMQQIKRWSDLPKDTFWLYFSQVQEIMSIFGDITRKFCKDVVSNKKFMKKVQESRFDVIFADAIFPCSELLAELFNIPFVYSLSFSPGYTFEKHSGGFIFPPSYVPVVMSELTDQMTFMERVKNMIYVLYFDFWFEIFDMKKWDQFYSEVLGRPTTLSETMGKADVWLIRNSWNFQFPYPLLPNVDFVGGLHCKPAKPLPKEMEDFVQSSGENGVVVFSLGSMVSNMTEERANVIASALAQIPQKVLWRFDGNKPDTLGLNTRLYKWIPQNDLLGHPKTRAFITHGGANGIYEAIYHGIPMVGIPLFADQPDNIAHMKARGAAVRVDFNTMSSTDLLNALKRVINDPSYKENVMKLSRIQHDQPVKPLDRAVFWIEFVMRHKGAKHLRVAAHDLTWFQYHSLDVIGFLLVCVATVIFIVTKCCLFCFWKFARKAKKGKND

UGT2B7 [9] = target: T2, UGT2B7 (Homo sapiens, UniProt P16662); assay: as above; assay type: biochemical; settings: human, pooled human liver microsomes
T2 sequence (P16662 24-529): T1 sequence (P16662 24-529)

CYP3A4 = test system: CYP3A4; set-up: method as in Bansal et al., 2023; settings: enzyme kinetic (HLM); ref Bansal et al., 2023; cited from earlier work
CYP2C19 [10] = test system: CYP2C19; set-up: method as in Bansal et al., 2020; settings: ref Bansal et al., 2020, read-out: KI,u (binding-corrected half-maximal inactivation concentration); cited from earlier work
[11] = ref Bansal et al., 2022, cited from earlier work
UGT2B7^268Tyr = target: T3, UGT2B7^268Tyr (Homo sapiens, UniProt P16662); assay: in vitro
T3 sequence (P16662 24-529): T1 sequence (P16662 24-529)

[12] = probe hydromorphone 400 μM (HM3G formation)
[13] = first-order absorption model, fasted

SMILES: C=C(C)[C@@H]1CCC(C)=C[C@H]1c1c(O)cc(CCCCC)cc1O [CBD, cannabidiol]
- KI (inactivation) (CYP1A2 [1]): 20 nM
- Log P [2]: 6.33
- pKa [2]: 9.13
- CLint, CYP: CYP2C19 (CYP2C19 [3]): 193 µL/min/mg of protein
- CLint, CYP: CYP1A2 (CYP1A2 [4]): 56 µL/min/mg of protein
- CLint, CYP: CYP2C8 (CYP2C8): 51 µL/min/mg of protein
- CLint, CYP: CYP2B6 (CYP2B6): 46 µL/min/mg of protein
- CLint, UGT: UGT1A9 (UGT1A9): 541 µL/min/mg of protein
- CLint, UGT: UGT2B7 (UGT2B7 [5]): 2162 µL/min/mg of protein
- KI (inactivation) (CYP3A): 106 nM
- CLint, CYP: CYP2C9 (CYP2C9): 93 µL/min/mg of protein
- ka (first-order absorption rate constant) [6]: 0.02
- increase in hydromorphone exposure (static modeling) [7]: > 1.25 fold
- CLint, CYP: CYP2D6 (CYP2D6): 38 µL/min/mg of protein
- Inhibition Type [8]: Competitive
- IC50 (UGT2B7 [9]; [12]): 140 ± 40 nM
- inhibition at 100 μM (UGT2B7 [9]; [12]): 83%
- Ki (UGT2B7 [9]; HLM, Ki corrected for nonspecific binding (fu,inc from refs 32,33; 11-OH-THC fu,inc as surrogate for 7-OH-CBD), competitive model, mixed model for 11-OH-THC, read-out: Ki,u): 68 ± 3 nM
- CLint, CYP: CYP3A4 (CYP3A4): 220 µL/min/mg of protein
- KI (inactivation) (CYP2C19 [10]): 73 nM
- Lag time ([11]; fasted): 1.5^1 hr
- fa [11, 13]: 0.25^1
- ka [11, 13]: 0.55^1 1/hr
- Fraction unbound in plasma [11]: 0.013
- Qgut [11]: 10.24 L/h
- fugut [11]: 0.013
- inhibition at 100 μM (UGT2B7^268Tyr): 96%
